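In this assay, cells in 96-well plates receive the compound at five concentrations for 48 hours. Endpoints are linearly interpolated between the surrounding concentrations. Here, GI50 denotes the concentration required for 50% inhibition of growth. TGI: total growth inhibition.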
Experiments:
Assay in all cases: NCI-60 cell line screen, 48 h
RXF 393 renal = tested on: RXF 393 renal
SK-OV-3 ovarian = tested on: SK-OV-3 ovarian
SNB-19 CNS = tested on: SNB-19 CNS
786-0 renal = tested on: 786-0 renal
HCT-15 colon = tested on: HCT-15 colon
SK-MEL-28 melanoma = tested on: SK-MEL-28 melanoma
SK-MEL-2 melanoma = tested on: SK-MEL-2 melanoma
NCI-H226 lung = tested on: NCI-H226 lung
SF-539 CNS = tested on: SF-539 CNS
HS 578T breast = tested on: HS 578T breast
K-562 leukemia = tested on: K-562 leukemia
T-47D breast = tested on: T-47D breast
A498 renal = tested on: A498 renal
IGROV1 ovarian = tested on: IGROV1 ovarian
CAKI-1 renal = tested on: CAKI-1 renal
SW-620 colon = tested on: SW-620 colon
M14 melanoma = tested on: M14 melanoma
SF-268 CNS = tested on: SF-268 CNS
HOP-62 NSCLC = tested on: HOP-62 NSCLC
PC-3 prostate = tested on: PC-3 prostate
ACHN renal = tested on: ACHN renal
MCF7 breast = tested on: MCF7 breast
RPMI-8226 leukemia = tested on: RPMI-8226 leukemia
HL-60(TB) leukemia = tested on: HL-60(TB) leukemia
HCC-2998 colon = tested on: HCC-2998 colon
COLO 205 colon = tested on: COLO 205 colon
UACC-257 melanoma = tested on: UACC-257 melanoma

## CN(C)c1ccc(O)c2c1CC1CC3C(N(C)C)C(=O)C(C(N)=O)=C(O)C3(O)C(=O)C1=C2O (centres undefined)
RXF 393 renal
  GI50: 4.84 µM
  TGI: 21.6 µM
SK-OV-3 ovarian
  GI50: 14.6 µM
  TGI: 85.4 µM
SNB-19 CNS
  GI50: 18.8 µM
  TGI: > 100 µM
786-0 renal
  GI50: 11.5 µM
  TGI: 39.7 µM
HCT-15 colon
  GI50: 5.59 µM
  TGI: > 100 µM
SK-MEL-28 melanoma
  GI50: 22.1 µM
  TGI: 59.1 µM
SK-MEL-2 melanoma
  GI50: 5.66 µM
  TGI: 22.9 µM
NCI-H226 lung
  GI50: 20.6 µM
  TGI: > 100 µM
SF-539 CNS
  GI50: 14.6 µM
  TGI: 35.5 µM
HS 578T breast
  GI50: 14.4 µM
  TGI: 59.4 µM
K-562 leukemia
  GI50: 16.8 µM
  TGI: > 100 µM
T-47D breast
  GI50: 27.7 µM
  TGI: > 100 µM
A498 renal
  GI50: 6.96 µM
  TGI: 35.9 µM
IGROV1 ovarian
  GI50: 5.78 µM
  TGI: 24.2 µM
CAKI-1 renal
  GI50: 5.74 µM
  TGI: 91.4 µM
SW-620 colon
  GI50: 15.3 µM
  TGI: > 100 µM
M14 melanoma
  GI50: 11.2 µM
  TGI: > 100 µM
SF-268 CNS
  GI50: 18.9 µM
  TGI: 92.3 µM
HOP-62 NSCLC
  GI50: 19.1 µM
  TGI: 62.9 µM
PC-3 prostate
  GI50: 12.6 µM
  TGI: 48.7 µM
ACHN renal
  GI50: 8.4 µM
  TGI: > 100 µM
MCF7 breast
  GI50: 20.2 µM
  TGI: > 100 µM
RPMI-8226 leukemia
  GI50: 5.86 µM
  TGI: 26.8 µM
HL-60(TB) leukemia
  GI50: 12.7 µM
  TGI: 48.9 µM
HCC-2998 colon
  GI50: 11.9 µM
  TGI: 39.1 µM
COLO 205 colon
  GI50: 13.7 µM
  TGI: 27 µM
UACC-257 melanoma
  GI50: 17 µM
  TGI: 52.1 µM

Reference: PubChem BioAssay (NCI)
